This is an account of results in patent publication US7625841B2, “Substituted thiene-3-ylsulphonylamino(thio)carbonyltriazolin(ethi)ones” (Bayer CropScience AG, priority 2001, dated 2009).

Molecules are shown by their SMILES.

Experiment in all cases: Pre-emergence test/greenhouse
Holding throughout (format): in vivo

Experiment [1] has as its system Galium. To be noted: greenhouse, application rate 15 gai/ha, rated after three weeks, 0%=no effect, 100%=total destruction. The procedure: (§1) • Solvent: 5 parts by weight of acetone • Emulsifier: 1 part by weight of alkylaryl polyglycol ether
(§2) To produce a suitable preparation of active compound, 1 part by weight of active compound is mixed with the stated amount of solvent, the stated amount of emulsifier is added and the concetrate is diluted with water to the desired concentration.
(§3) Seeds of the test plants are sown in normal soil. After 24 hours, the soil is sprayed with the preparation of active compound such that the particular amount of active compound desired is applied per unit area. The concentration of active compound in the spray liquor is chosen such that the particular amount of active compound desired is applied in 1000 litres of water per hectare.
(§4) After three weeks, the degree of damage to the plants is rated in % damage in comparison to the development of the untreated control. The figures denote: • 0%=no effect (like untreated control) • 100%=total destruction

For experiment [2], the system named is Setaria. To be noted: greenhouse, application rate 15 gai/ha, rated after three weeks, 0%=no effect, 100%=total destruction. The protocol:
as §1, §2, §3, §4

Experiment [3] deals with Chenopodium. Conditions: greenhouse, application rate 15 gai/ha, rated after three weeks, 0%=no effect, 100%=total destruction. The procedure:
as §1, §2, §3, §4

Experiment [4] has as its system Amaranthus. Conditions: greenhouse, application rate 15 gai/ha, rated after three weeks, 0%=no effect, 100%=total destruction. The protocol: as §1, §2, §3, §4
The test system of experiment [5] is Matricaria. Conditions: Matricaria, 504 h, greenhouse, application rate 15 gai/ha, rated after three weeks, 0%=no effect, 100%=total destruction, read-out: degree of damage to the plants, Matricaria. The procedure: as §1, §2, §3, §4
Experiment [6] has as its system Stellaria. To be noted: Stellaria, 504 h, greenhouse, application rate 15 gai/ha, rated after three weeks, 0%=no effect, 100%=total destruction, read-out: degree of damage to the plants, Stellaria. The protocol:
as §1, §2, §3, §4

The test system of experiment [7] is Xanthium. Conditions: Xanthium, 504 h, greenhouse, application rate 15 gai/ha, rated after three weeks, 0%=no effect, 100%=total destruction, read-out: degree of damage to the plants, Xanthium. The protocol:
as §1, §2, §3, §4

Experiment [8] concerns Polygonum. To be noted: greenhouse, application rate 15 gai/ha, rated after three weeks, 0%=no effect, 100%=total destruction. The procedure: as §1, §2, §3, §4
Experiment [9] concerns Alopecurus. To be noted: greenhouse, application rate 15 gai/ha, rated after three weeks, 0%=no effect, 100%=total destruction. The protocol: as §1, §2, §3, §4
For experiment [10], the system named is maize. To be noted: Zea mays, 504 h, greenhouse, application rate 15 gai/ha, rated after three weeks, 0%=no effect, 100%=total destruction, read-out: degree of damage to the plants, maize. The protocol:
as §1, §2, §3, §4

The test system of experiment [11] is Bromus. To be noted: greenhouse, application rate 15 gai/ha, rated after three weeks, 0%=no effect, 100%=total destruction. The procedure:
as §1, §2, §3, §4

Experiment [12] concerns Lolium. To be noted: Lolium, 504 h, greenhouse, application rate 15 gai/ha, rated after three weeks, 0%=no effect, 100%=total destruction, read-out: degree of damage to the plants, Lolium. The protocol: as §1, §2, §3, §4
Experiment [13] relates to Digitaria. Conditions: greenhouse, application rate 15 gai/ha, rated after three weeks, 0%=no effect, 100%=total destruction. The protocol: as §1, §2, §3, §4
The test system of experiment [14] is soybeans. To be noted: greenhouse, application rate 15 gai/ha, rated after three weeks, 0%=no effect, 100%=total destruction. The procedure:
as §1, §2, §3, §4

In experiment [15] the test system is wheat. Conditions: Triticum aestivum, 504 h, greenhouse, application rate 15 gai/ha, rated after three weeks, 0%=no effect, 100%=total destruction, read-out: degree of damage to the plants, wheat. The procedure:
as §1, §2, §3, §4

The test system of experiment [16] is Avena fatua. To be noted: greenhouse, application rate 15 gai/ha, rated after three weeks, 0%=no effect, 100%=total destruction. The procedure:
as §1, §2, §3, §4

For experiment [17], the system named is Solanum. Conditions: greenhouse, application rate 15 gai/ha, rated after three weeks, 0%=no effect, 100%=total destruction. The procedure: as §1, §2, §3, §4

In the case of `COC(=O)c1csc(C)c1S(=O)(=O)NC(=O)n1nc(OC(C)C)n(C2CC2)c1=O` [(C), methyl 4-[[[(4-cyclopropyl-4,5-dihydro-5-oxo-3-isopropoxy-1H-1,2,4-triazol-1-yl)-carbonyl]amino]sulfonyl]-5-methyl-3-thiophenecarboxylate, reference compound], the “degree of damage to the plants, Galium” value in experiment [1] amounted to 70%. For the same compound, the “degree of damage to the plants, Setaria” value in experiment [2] was found to be 50%. Besides, the “degree of damage to the plants, Chenopodium” value (shortened to “degree of damage … Chenopodium”) in [3] stood at 40%. In addition, in experiment [4], the “degree of damage to the plants, Amaranthus” value (from here on “degree of damage … Amaranthus”) was 80%. Further, the pest or weed control at 15 g/ha in experiment [5] is 80%; in experiment [6], 80%; in experiment [7], 0%; in experiment [12] it was 50%. Moreover, in experiment [8], the “degree of damage to the plants, Polygonum” value (“degree of damage … Polygonum” below) is listed as 60%. Besides, the “degree of damage to the plants, Alopecurus” value (from here on “degree of damage … Alopecurus”) in experiment [9] was 0%. The plant injury at 15 g/ha in experiment [10] and in experiment [15] was 0% in each case. Besides, the “degree of damage to the plants, Bromus” value in experiment [11] worked out at 70%. The “degree of damage to the plants, Digitaria” value (from here on “degree of damage … Digitaria”) in experiment [13] is given as 20%. The “degree of damage to the plants, soybeans” value in experiment [14] worked out at 0%. For the same compound, in experiment [16], the “degree of damage to the plants, Avena fatua” value (shortened to “degree of damage … Avena fatua”) is 50%.

On to `COC(=O)c1csc(C)c1S(=O)(=O)NC(=O)n1nc(SC)n(C)c1=O` [(G), methyl 4-[[[(4,5-dihydro-4-methyl-3-methylthio-5-oxo-1H-1,2,4-triazol-1-yl)carbonyl]amino]sulfonyl]-5-methyl-3-thiophenecarboxylate, reference compound], for which the “degree of damage to the plants, Galium” value in experiment [1] was found to be 30%. In addition, in [2], the “degree of damage to the plants, Setaria” value worked out at 70%. Further, the “degree of damage … Chenopodium” value in experiment [3] is reported as 50%. For the same compound, the “degree of damage … Amaranthus” value in [4] is on record as 40%. The pest or weed control at 15 g/ha in experiment [5] is 70%; in [6], 80%; in [7] it was 40%; in experiment [12], 60%. Further, the “degree of damage to the plants, Solanum” value in [17] is reported as 80%. Also, in [8], the “degree of damage … Polygonum” value is 70%. Further, the plant injury at 15 g/ha in experiment [10] and in experiment [15] was 0% throughout. Further, the “degree of damage … Digitaria” value in [13] was found to be 50%. Also, the “degree of damage to the plants, soybeans” value in experiment [14] came to 50%. Also, in experiment [16], the “degree of damage … Avena fatua” value came to 50%.

Take `CCc1nn(C(=O)NS(=O)(=O)c2c(C(=O)OC)csc2C)c(=O)n1C` [(F), methyl 4-[[[(4,5-dihydro-3-ethyl-4-methyl-5-oxo-1H-1,2,4-triazol-1-yl)carbonyl]-amino]sulfonyl]-5-methyl-3-thiophenecarboxylate, reference compound]: the “degree of damage to the plants, Galium” value in experiment [1] stood at 10%. The “degree of damage to the plants, Setaria” value in experiment [2] stood at 30%. The “degree of damage … Chenopodium” value in [3] is on record as 0%. Further, the “degree of damage … Amaranthus” value in [4] was 40%. The pest or weed control at 15 g/ha came to 20% in experiment [5], 70% in experiment [6], 0% in experiment [7] and 40% in experiment [12]. Moreover, the “degree of damage to the plants, Solanum” value in [17] is 80%. For the same compound, the “degree of damage … Polygonum” value in [8] was 50%. Further, in [9], the “degree of damage … Alopecurus” value came to 70%. Also, the plant injury at 15 g/ha in experiment [10] and in [15] was 0% throughout. In experiment [11], the “degree of damage to the plants, Bromus” value is recorded as 70%. Also, in [13], the “degree of damage … Digitaria” value is reported as 60%. For the same compound, the “degree of damage to the plants, soybeans” value in [14] is recorded as 10%. For the same compound, the “degree of damage … Avena fatua” value in [16] is on record as 60%.

For `COC(=O)c1csc(C)c1S(=O)(=O)NC(=O)n1nc(C)n(C)c1=O` [(E), methyl 4-[[[(4,5-dihydro-3,4-dimethyl-5-oxo-1H-1,2,4-triazol-1-yl)carbonyl]-amino]sulfonyl]-5-methyl-3-thiophenecarboxylate, reference compound], the “degree of damage to the plants, Galium” value in [1] is 0%. The “degree of damage to the plants, Setaria” value in experiment [2] was found to be 20%. The “degree of damage … Chenopodium” value in experiment [3] was 0%. In addition, in [4], the “degree of damage … Amaranthus” value is listed as 10%. In addition, the pest or weed control at 15 g/ha turned out to be 20% in experiment [5], 40% in experiment [6], 0% in experiment [7] and 0% in [12]. Besides, in experiment [17], the “degree of damage to the plants, Solanum” value came to 70%. The “degree of damage … Polygonum” value in [8] was determined as 20%. Also, in experiment [9], the “degree of damage … Alopecurus” value turned out to be 20%. For the same compound, the plant injury at 15 g/ha in experiment [10] and in [15] was 0% each time. The “degree of damage to the plants, Bromus” value in experiment [11] came out at 20%. Moreover, in experiment [13], the “degree of damage … Digitaria” value was 0%. Further, the “degree of damage to the plants, soybeans” value in [14] is recorded as 0%. Also, the “degree of damage … Avena fatua” value in experiment [16] is 0%.

For `COC(=O)c1csc(C)c1S(=O)(=O)NC(=O)n1nc(C2CC2)n(C2CC2)c1=O` [(D), methyl 4-[[[(3,4-dicyclopropyl-4,5-dihydro-5-oxo-1H-1,2,4-triazol-1-yl)carbonyl]-amino]sulfonyl]-5-methyl-3-thiophenecarboxylate, reference compound], in experiment [1], the “degree of damage to the plants, Galium” value is recorded as 0%. Further, in experiment [2], the “degree of damage to the plants, Setaria” value is given as 10%. The “degree of damage … Chenopodium” value in [3] was found to be 0%. Moreover, in experiment [4], the “degree of damage … Amaranthus” value is 80%. The pest or weed control at 15 g/ha worked out at 10% in experiment [5], 60% in experiment [6], 0% in [7] and 20% in experiment [12]. For the same compound, in [17], the “degree of damage to the plants, Solanum” value turned out to be 80%. For the same compound, in [8], the “degree of damage … Polygonum” value was determined as 10%. Also, the “degree of damage … Alopecurus” value in experiment [9] amounted to 0%. Further, the plant injury at 15 g/ha in experiment [10] is 20%; in [15], 0%. Further, in experiment [11], the “degree of damage to the plants, Bromus” value worked out at 10%. The “degree of damage … Digitaria” value in [13] turned out to be 20%. For the same compound, the “degree of damage to the plants, soybeans” value in [14] is 0%. Besides, the “degree of damage … Avena fatua” value in [16] was 70%.
